{"source": "paper PMC11352273", "about": "“The Proapoptotic Action of Pyrrolidinedione–Thiazolidinone Hybrids towards Human Breast Carcinoma Cells Does Not Depend on Their Genotype” (Cancers, 2024)", "key": {"[1]": {"tested_on": "mitogen-activated lymphocytes collected from the peripheral blood of a healthy donor", "design": "method as in PMID 37579525", "conditions": "cited from earlier work"}, "[2]": {"tested_on": "normal human keratinocytes (HaCaT)", "design": "method as in PMID 37579525", "conditions": "cited from earlier work"}, "Beclin-1 in MCF-7 cells": {"tested_on": "Beclin-1 in MCF-7 cells", "assay": "Beclin-1 ELISA in cell lysates", "type": "cell-based, human", "conditions": "MCF-7, 24 h, 2 μM; untreated control 4.08 ng/mL", "protocol": "(§1) In order to determine the Beclin-1 concentration in the cell lysates, the SimpleStep ELISA (Abcam, Cambridge, UK) Kit was used. MMP-2, MMP-9, and ICAM-1 concentrations were measured in culture supernatants using high-sensitivity human SimpleStep ELISA kits (Abcam, Cambridge, UK) according to the manufacturer’s protocols. The LC3B ELISA kit (BT LAB, Shanghai, China) was used to check the protein concentration in cell lysates from analyzed breast cancer cells. The procedure for preparing the samples was shown previously."}, "[3]": {"tested_on": "Beclin-1 in MDA-MB-231 cells", "assay": "Beclin-1 ELISA in cell lysates", "type": "cell-based, human", "conditions": "MDA-MB-231, 24 h, 2 μM; untreated control 11.79 ng/mL", "protocol": "as §1"}, "[4]": {"tested_on": "caspase 10 in MDA-MB-231 cells", "assay": "Caspase-10 activity, FAM-FLICA flow cytometry", "type": "cell-based, human", "conditions": "MDA-MB-231, 24 h"}, "[5]": {"tested_on": "caspase 9 in MDA-MB-231 cells", "assay": "Caspase-9 activity, FAM-FLICA flow cytometry", "type": "cell-based, human", "conditions": "MDA-MB-231, 24 h", "quoted_text": "(§3) The assay was performed following the manufacturer’s instructions and the previously described methodology [25]. […] The cells were gathered, rinsed twice with chilled PBS, and reconstituted in an Apoptosis Wash Buffer. Then, 10 µL of freshly diluted FLICA solution was added to 290 µL of cell suspension and incubated for an hour at 37 °C. Following two rounds of washing with 2 mL of Apoptosis Wash Buffer, the cells were centrifuged, resuspended in 300 µL of the buffer, and then analyzed [25]."}, "caspase 9 in MCF-7 cells": {"tested_on": "caspase 9 in MCF-7 cells", "assay": "Caspase-9 activity, FAM-FLICA flow cytometry", "type": "cell-based, human", "conditions": "MCF-7, 24 h", "quoted_text": "as §3"}, "caspase 8 in MCF-7 cells": {"tested_on": "caspase 8 in MCF-7 cells", "assay": "Caspase-8 activity, FAM-FLICA flow cytometry", "type": "cell-based, human", "conditions": "MCF-7, 24 h", "quoted_text": "as §3"}, "[6]": {"tested_on": "MDA-MB-231, 4T1, MCF-7, T-47D, and HCC1954 cells", "assay": "MTT assay, summary over breast carcinoma cell lines", "type": "cell-based", "protocol": "The MCF-7 and MDA-MB-231 cells were cultured in the DMEM medium containing 10% of the FBS, HCC1954, T-47D, and 4T1 cells in the RPMI-1640 medium with the addition of 10% of the FBS, and MCF-10A cells in MEGM Mammary Epithelial Cell Growth Medium BulletKit supplemented with penicillin/streptomycin cocktail and 5% of horse serum. The cells were cultured in a […] atmosphere at 5% CO2 and 37 °C. After trypsinization, cells were counted using a Scepter 3.0 handheld automated cell counter (Millipore, Burlington, MA, USA).\nThe MTT test was used to assess the metabolic activity of cells treated with the investigated substances following the Sigma-Aldrich manufacturer’s instructions. Briefly, compounds were added in 100 µL of the cultural medium, and cells were incubated for the next 24 and 48 h. Doxorubicin was used as a reference drug. The DMSO was added to dissolve the crystals of formazan. We used the ThermoScientific Evolution 201 UV–VIS spectrophotometer (ThermoFisher Scientific, Waltham, MA, USA) to measure the absorbance of formazan at 570 nm. The initial value of the relative number of cells in control (under 0.1% of the DMSO) was accepted as 100%. We used GraphPad Prism Version 9 to calculate the half-maximal inhibition concentration (IC50) of the studied compounds (the concentration of the drug that reduced cell viability by 50%)."}, "[7]": {"tested_on": "caspase 3/7 in MDA-MB-231 cells", "assay": "Caspase-3/7 activity, FAM-FLICA flow cytometry", "conditions": "MDA-MB-231, 24 h", "quoted_text": "as §3"}, "MCF-7 cells": {"tested_on": "MCF-7 cells", "assay": "JC-1 mitochondrial membrane potential flow cytometry", "type": "cell-based, human", "conditions": "MCF-7, 24 h", "protocol": "(§2) The JC-1 MitoScreen kit (BD Pharmigen, San Diego, CA, USA) and a flow cytometer (BD FACSCanto II) were used to detect the decrease in mitochondrial membrane potential (MMP, ΔΨm) under the action of the studied compounds. […] Following washing, the cells were further suspended in 0.5 mL of buffer with 10 µg/mL JC-1 and incubated for 15 min at room temperature in the dark. Then, cells were washed twice with buffer, resuspended in 300 µL PBS, and analyzed."}, "MDA-MB-231 cells": {"tested_on": "MDA-MB-231 cells", "assay": "JC-1 mitochondrial membrane potential flow cytometry", "type": "cell-based, human", "conditions": "MDA-MB-231, 24 h", "protocol": "as §2"}, "[8]": {"tested_on": "MCF-7, MDA-MB-231, and HCC1954 cell lines", "assay": "[3H]-thymidine incorporation assay, summary over cancer cell lines", "type": "cell-based", "conditions": "Homo sapiens; 24 h, MCF-7, MDA-MB-231, HCC1954; read-out: IC50 of DNA synthesis inhibition, range over cell lines", "protocol": "Following a 24 h cell treatment, the incorporation of [^3H]-thymidine into the DNA of the breast tumor and normal cells was used to measure the antiproliferative activity of Les-6287. The MCF-7, MDA-MB-231, HCC1954, and MCF-10A cells were seeded into six-well plates (density 3 × 10^5 cells/well) and cultured for 24 h. Then, they were incubated under the same conditions for the next 24 h with a growth medium containing the tested compounds and reference drug (doxorubicin) at different concentrations (1, 2.5, 5, 10, 50 µM). After 24 h, the medium was changed to a fresh one without FBS. A total of 0.5 µCi of tritium-labeled thymidine (specific activity: 7 Ci/mmol) was added to cells for 4 h. The cells were washed with 1 mL of 0.05 M Tris-HCl buffer pH 7.4 containing 0.11 M NaCl and 1 mL of 5% trichloroacetic acid (TCA). Each well was filled with 1 mL of a 0.1 M NaOH solution containing 1% SDS to complete cell lysis. After 5 min, the acquired cell lysates were put into scintillation vials and pre-filled with two milliliters of scintillation liquid. The Scintillation Counter 1900 TR, TRI-CARB (Packard, Perkin Elmer, Inc., San Jose, CA, USA) was used to record the results. The effect of compounds on DNA synthesis was expressed as % of the control (non-treated cells)."}, "[9]": {"tested_on": "caspase 3/7 in MCF-7 cells", "assay": "Caspase-3/7 activity, FAM-FLICA flow cytometry", "conditions": "MCF-7, 24 h", "quoted_text": "as §3"}, "[10]": {"tested_on": "caspase 10 in MCF-7 cells", "assay": "Caspase-10 activity, FAM-FLICA flow cytometry", "type": "cell-based, human", "conditions": "MCF-7, 24 h"}, "[11]": {"tested_on": "caspase 8 in MDA-MB-231 cells", "assay": "Caspase-8 activity, FAM-FLICA flow cytometry", "type": "cell-based, human", "conditions": "MDA-MB-231, 24 h", "quoted_text": "as §3"}}, "data": [{"smiles": "O=C1CC(N2C(=O)C(=CC(Cl)=Cc3ccc([N+](=O)[O-])cc3)SC2=S)C(=O)N1c1ccc(O)cc1", "note": "(stereo not drawn) [Les-6287, 1-(4-hydroxyphenyl)-3-[5-[2-chloro-3-(4-nitrophenyl)prop-2-enylidene]-4-oxo-2-thioxothiazolidine-3-yl]pyrrolidine-2,5-dione]", "values": [{"measurement": "IC50", "setting": "[1]", "result": "29 to 67", "unit": "µM"}, {"measurement": "IC50", "setting": "[2]", "result": "> 73.6", "unit": "µM"}, {"measurement": "concentration of Beclin-1", "setting": "Beclin-1 in MCF-7 cells", "result": 2.78, "unit": "ng/mL"}, {"measurement": "concentration of Beclin-1", "setting": "[3]", "result": 9.83, "unit": "ng/mL"}, {"measurement": "cells with active caspase 10", "setting": "[4]; 1 µM", "result": "14.48 ± 2.53", "unit": "%"}, {"measurement": "cells with active caspase 10", "setting": "[4]; 1.5 µM", "result": "19.78 ± 0.80", "unit": "%"}, {"measurement": "cells with active caspase 9", "setting": "[5]; 1 µM", "result": "15.30 ± 0.80", "unit": "%"}, {"measurement": "cells with active caspase 9", "setting": "[5]; 1.5 µM", "result": "21.88 ± 2.00", "unit": "%"}, {"measurement": "cells with active caspase 9", "setting": "caspase 9 in MCF-7 cells; 1 µM", "result": "24.40 ± 0.98", "unit": "%"}, {"measurement": "cells with active caspase 9", "setting": "caspase 9 in MCF-7 cells; 1.5 µM", "result": "36.45 ± 1.05", "unit": "%"}, {"measurement": "cells with active caspase 8", "setting": "caspase 8 in MCF-7 cells; 1 µM", "result": "11.08 ± 1.30", "unit": "%"}, {"measurement": "cells with active caspase 8", "setting": "caspase 8 in MCF-7 cells; 1.5 µM", "result": "17.78 ± 5.19", "unit": "%"}, {"measurement": "IC50", "setting": "[6]; Breast carcinoma cell, 24 and 48 h, all five cancer cell lines and all three hybrids together, read-out: IC50, range over breast carcinoma cell lines", "result": "1.37 to 21.9", "unit": "µM"}, {"measurement": "selectivity index (SI = IC50 for MCF-10A/IC50 for human breast tumor cells)", "setting": "[6]; range over cell lines and time points", "result": "24.10–47.13"}, {"measurement": "cells with active caspase 3/7", "setting": "[7]; 1 µM", "result": "17.20 ± 1.58", "unit": "%"}, {"measurement": "cells with active caspase 3/7", "setting": "[7]; 1.5 µM", "result": "26.63 ± 8.32", "unit": "%"}, {"measurement": "cells with decreased mitochondrial membrane potential (ΔΨm)", "setting": "MCF-7 cells; 1 µM", "result": "21.00 ± 1.20", "unit": "%"}, {"measurement": "cells with decreased mitochondrial membrane potential (ΔΨm)", "setting": "MCF-7 cells; 1.5 µM", "result": "38.85 ± 3.46", "unit": "%"}, {"measurement": "cells with decreased mitochondrial membrane potential (ΔΨm)", "setting": "MDA-MB-231 cells; 1 µM", "result": "3.75 ± 1.34", "unit": "%"}, {"measurement": "cells with decreased mitochondrial membrane potential (ΔΨm)", "setting": "MDA-MB-231 cells; 1.5 µM", "result": "17.85 ± 3.46", "unit": "%"}, {"measurement": "IC50", "setting": "[8]", "result": "2.32 to 3.67", "unit": "µM"}, {"measurement": "cells with active caspase 3/7", "setting": "[9]; 1 µM", "result": "21.38 ± 1.50", "unit": "%"}, {"measurement": "cells with active caspase 3/7", "setting": "[9]; 1.5 µM", "result": "47.08 ± 3.40", "unit": "%"}, {"measurement": "cells with active caspase 10", "setting": "[10]; 1 µM", "result": "11.58 ± 2.30", "unit": "%"}, {"measurement": "cells with active caspase 10", "setting": "[10]; 1.5 µM", "result": "20.50 ± 1.49", "unit": "%"}, {"measurement": "cells with active caspase 8", "setting": "[11]; 1 µM", "result": "18.23 ± 0.62", "unit": "%"}, {"measurement": "cells with active caspase 8", "setting": "[11]; 1.5 µM", "result": "23.50 ± 1.03", "unit": "%"}]}]}
